Values of other authors as cited in patent publication US20030195171A1 (priority 2002, published 2003).

Tests used:
[1] = compared to placebo
vitamin D receptor = molecular target: T1, vitamin D receptor (Homo sapiens, UniProt P11473); details: relative to 1α,25-dihydroxy-cholecalciferol
T1 sequence (P11473 1-427): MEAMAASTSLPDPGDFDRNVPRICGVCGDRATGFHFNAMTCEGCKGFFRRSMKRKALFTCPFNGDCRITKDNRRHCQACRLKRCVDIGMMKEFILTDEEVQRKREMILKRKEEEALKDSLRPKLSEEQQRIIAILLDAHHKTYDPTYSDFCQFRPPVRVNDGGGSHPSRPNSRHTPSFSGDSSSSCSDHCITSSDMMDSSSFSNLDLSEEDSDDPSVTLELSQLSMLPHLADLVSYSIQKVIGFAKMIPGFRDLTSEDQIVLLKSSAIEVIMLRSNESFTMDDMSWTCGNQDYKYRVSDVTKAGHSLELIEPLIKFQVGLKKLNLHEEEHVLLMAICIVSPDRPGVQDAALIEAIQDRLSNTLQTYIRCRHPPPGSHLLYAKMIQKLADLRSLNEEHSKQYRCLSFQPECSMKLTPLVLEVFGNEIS

Row | Compound | Decrease in the risk of vertebral fractures ([1]; administered over a substantial period of time) | Reduction in vertebral fracture rate per 100 patients ([1]; total number of vertebral fractures) | Intrinsic activity, fold lower than that of 1α,25-dihydroxy-cholecalciferol (vitamin D receptor)
1 | NCCCC(O)(P(=O)(O)O)P(=O)(O)O [alendronate, 4-Amino-1-hydroxybutylidene-1,1-bisphosphonic acid monosodium trihydrate] | at least 40% | at least 50% | –
2 | C=C1CC[C@H](O)C/C1=C/C=C1\CCC[C@]2(C)[C@@H]([C@H](C)CCCC(C)(C)O)CC[C@@H]12 [25-hydroxy-cholecalciferol] | – | – | about 100 fold
